We go through one compound from patent EP1077942B1, “CARBOXY SUBSTITUTED CARBOXAMIDE DERIVATIVES AS TACHYKININ RECEPTOR ANTAGONISTS” (Aventis Pharmaceuticals Inc., priority 1998, dated 1999).

Where a name gives a salt, the structure may show the parent alone.

For one assay, the target named is T1, NK1 receptor (Cavia porcellus, UniProt P30547).
T1 construct: evaluated in guinea pig lungs (Keystone Biologicals, Cleveland, OH); tissue Keystone Biologicals, Cleveland, OH; host or cells: guinea pig lung membrane homogenate
T1 sequence (P30547 whole entry): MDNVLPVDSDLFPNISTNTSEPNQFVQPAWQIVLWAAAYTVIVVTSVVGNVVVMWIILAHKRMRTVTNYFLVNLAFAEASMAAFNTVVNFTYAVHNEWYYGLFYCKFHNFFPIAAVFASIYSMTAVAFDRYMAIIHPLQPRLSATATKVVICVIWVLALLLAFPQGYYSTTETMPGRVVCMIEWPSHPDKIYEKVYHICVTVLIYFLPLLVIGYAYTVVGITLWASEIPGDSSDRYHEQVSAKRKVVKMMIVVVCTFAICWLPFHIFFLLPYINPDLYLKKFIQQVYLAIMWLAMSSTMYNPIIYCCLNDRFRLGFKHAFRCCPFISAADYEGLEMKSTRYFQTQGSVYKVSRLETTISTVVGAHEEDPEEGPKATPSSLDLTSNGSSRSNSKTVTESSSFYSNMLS
As to the kind of experiment: Antagonism of iodinated tachykinin binding to NK1 receptor (Example A). The conditions noted are these: guinea pig lungs membranes; 125I-Bolton Hunter Lys-3 labeled substance P 0.1 nM; mean of several experiments. As to the method:
(§1) Antagonism of iodinated tachykinin binding to NK1 and NK2 receptors by putative antagonists
(§2) One skilled in the art can determine the NK1 receptor and NK2 receptor affinity in vitro as follows. The NK1 receptor affinity of tachykinin antagonists is evaluated in guinea pig lungs (Keystone Biologicals, Cleveland, OH) and affinity for the NK2 receptor is evaluated in HSKR-1 cells (which are mouse 3T3 fibroblasts expressing the human jejunal NK2 receptor). Tissues or cells are homogenized with a Polytron in 15 volumes of 50 mM Tris-HCl buffer (pH 7.4, 4°C) and centrifuged. The pellet is resuspended in Tris-HCl buffer and is centrifuged; the pellet is washed twice by resuspension. The final pellet is resuspended at a concentration of 40 mg/ml for tissues and 20 mg/ml for cells in incubation buffer and remains at room temperature for at least 15 min prior to use. […] Filter bound radioactivity is quantitated in a gamma counter. Nonspecific binding is defined as binding in the presence of 1 µM substance P or neurokinin A. Specific binding is calculated by subtracting nonspecific binding from total binding. Competition of iodinated SP or NKA binding by test compounds or standards is expressed as a percentage of this maximum binding. […]

Assay [1] addresses T2, human jejunal NK2 receptor (Homo sapiens, UniProt P21452).
T2 construct: expressed in transfected cells; host or cells: HSKR-1 cells (mouse 3T3 fibroblasts)
T2 sequence (P21452 1-398): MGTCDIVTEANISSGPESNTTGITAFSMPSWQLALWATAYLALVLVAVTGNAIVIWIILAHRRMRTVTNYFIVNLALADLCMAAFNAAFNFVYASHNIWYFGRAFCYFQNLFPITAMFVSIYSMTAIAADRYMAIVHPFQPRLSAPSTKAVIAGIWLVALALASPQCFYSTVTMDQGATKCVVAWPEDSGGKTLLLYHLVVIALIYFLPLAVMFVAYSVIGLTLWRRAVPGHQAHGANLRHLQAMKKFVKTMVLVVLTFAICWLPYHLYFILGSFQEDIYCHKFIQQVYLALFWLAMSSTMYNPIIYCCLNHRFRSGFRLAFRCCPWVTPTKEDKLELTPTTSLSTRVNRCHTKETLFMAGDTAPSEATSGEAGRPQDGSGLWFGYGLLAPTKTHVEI
As to the kind of experiment: Antagonism of iodinated tachykinin binding to NK2 receptor (Example A). The conditions noted are these: HSKR-1 cells (mouse 3T3 fibroblasts expressing the human jejunal NK2 receptor); 125 iodohistidyl-1-neurokinin A 0.1 nM; mean of several experiments. As to the method: as §1, §2

As to `CCOC(=O)CN1CCN(C(=O)C2(c3ccccc3)CCN(CC[C@H](CN(C)C(=O)c3cc(-n4cnnn4)ccc3OC)c3ccc(Cl)c(Cl)c3)CC2)CC1` [Example 1.2, (S)-N-methyl-N-(4-(4-phenyl-4-((4-carboethoxymethylpiperazin-1-yl)carboxamido)piperidin-1-yl) 2-(3,4-dichlorophenyl)butyl)-2-methoxy-5-(1H-tetrazol-1-yl)benzamide hydrochloric acid salt], the IC50 on NK1 receptor is 0.023 µM; in assay [1] it was 0.178 µM.

As usually defined, the IC50 is the concentration needed to halve the response being measured.
